“Also recorded” adds a separate entry of the source. No end group written: not given here. *: point of attachment. Biotin = O=C1N[C@H]2[C@H](CS[C@H]2CCCCC(=O)*)N1
What was measured:
[1] = system: human monocyte-derived DCs; test: Cytokine and chemokine secretion by human immature monocyte-derived DCs (ELISA); assay type: cell-based; set-up: key to TNFα / IL-18 / IL-8 / IL-10 / IL-6 / IL-12: + indicates increase; − indicates no change compared to medium; conditions: for secretion of IL-6 / secretion of IL-8 / secretion of IL-12 (p70) / secretion of IL-18 / secretion of TNF-α: Example 2, peptides 200 μg/ml, HMGB1-Bx 50 μg/ml, polymyxin B, 48 h; for secretion of IL-6: FIG. 8A, 8B; for secretion of IL-8 / secretion of IL-12 (p70) / secretion of IL-18 / secretion of TNF-α: FIG. 8C; for IL-6 / IL-8 / IL-10 / IL-12 / IL-18 / TNFα: HUMAN DC, ELISA 48 h after exposure, compared to medium
Description: (§1) PBMCs were isolated from the blood of normal volunteers (Long Island Blood Services, Melville, N.Y.) over a Ficoll-Hypaque (Amersham Biosciences, Uppsala, Sweden) density gradient. CD14^+ monocytes were isolated from PBMCs by positive selection using anti-CD14 beads (Miltenyi Biotech., Auburn, Calif.) following the manufacturer's instructions. To generate DCs, CD14^+ cells were cultured in RPMI 1640 medium supplemented with 2 mM L-glutamine (GIBCO-BRL Life Technologies; Grand Island, N.Y.), 50 μM 2-mercaptoethanol (Sigma, St. Louis, Mo.), 10 mM HEPES (GIBCO-BRL), penicillin (100 U/ml)-streptomycin (100 μg/ml) (GIBCO-BRL), and 5% human AB serum (Gemini Bio-Products, Woodland, Calif.). Cultures were maintained for 7 days in 6-well trays (3×10^6 cells/well) supplemented with 1000 U GM-CSF per ml (Immunex, Seattle, Wash.) and 200 U IL-4 per ml (R&D Systems; Minneapolis, Minn.) at days 0, 2, 4 and 6.
(§2) At day 7 of culture, immature DCs were either left untreated (“immature”, IM), or were stimulated with indicated doses of (i) LPS (E. coli serotype 026:B6, Sigma), (ii) 500 ng/ml of trimeric CD40L (Alexis Biochemicals; San Diego, Calif.), (iii) a cocktail of cytokines (CyC) consisting of IL-6 at 1000 U/ml, TNFα at 10 ng/ml, IL-1β at 10 ng/ml (all from R&D Systems) and prostaglandin E2 (PGE-2) at 1 μg/ml (Sigma), or with (v) non-methylated CpG oligonucleotides (5′ […] 3′) at 30 μg/ml. The sequence of this oligonucleotide is known to induce DC maturation (4), except that it contains an unmodified phosphodiester backbone. In all experiments, DCs were analyzed 48 h after stimulation. All experiments using the rB box were performed in the presence of polymyxin B sufficient to neutralize greater than 10-fold more LPS than present in rB box preparations.
(§3) 48 h post activation, the production of cytokines and chemokines in cell culture supernatants was measured by ELISA (Pierce Boston Technology Center, SearchLight™ Proteome Arrays Multiplex Sample Testing Services, Woburn, Mass.).
as §1, with “DCs, CD 14^+” for “DCs, CD14^+”
(§4) At day 7 of culture, immature DCs were either left untreated, or were stimulated with indicated doses of HMGB1-Bx, HMGB1 peptides, or LPS (E. coli serotype 026:B6, Sigma). In all experiments, DCs were analyzed 48 h after stimulation.

murine BM-DCs [2] = test: Cytokine and chemokine secretion by murine bone marrow-derived DCs (ELISA); assay type: cell-based, mouse; set-up: key to TNFα / IL-18 / IL-8 / IL-10 / IL-2 / IL-1β / IL-5 / IL-6 / IL-12: + indicates increase; − indicates no change compared to medium; conditions: for IL-1β / IL-2 / IL-5 / IL-6 / IL-8 / IL-10 / IL-12 / IL-18 / TNFα: Murine DC, ELISA 48 h after exposure, compared to medium
Description: (§5) Bone marrow-derived DCs (BM-DC) were generated using modifications of the original method described by Inaba et al (42). In brief, bone marrow suspensions were incubated with red cell lysis buffer (PUREGENE™ RBC Lysis Solution, Gentra Systems, Minneapolis, Minn.) to remove red blood cells. After washing in media, lymphocytes and Ia-positive cells were killed with a cocktail of mAbs and rabbit complement for 60 min at 37° C. The mAbs were GK1.5 anti-CD4, TIB211 anti-CD8, TIB 120 anti-Ia, and TM 146 anti B220 (The Abs were kindly provided by Dr. Ralph Steinman). The cells were subsequently cultured in media containing 5% FCS and 10 ng/ml recombinant mouse GM-CSF (R&D Systems; Minneapolis, Minn.) for 7 days. For some experiments the cells were further purified at day 7 using CD11c^+-microbeads (Miltenyi Biotech., Auburn, Calif.) according to the manufacturer's instructions.
as §4, §3

murine BM-DCs [3] = test: Phenotypic maturation of murine BM-DCs (surface markers, FACS); assay type: cell-based, mouse; conditions: CD11c+ gated BM-DCs, 48 h, peptides 200 μg/ml
Description: as §5, §4
1×10^4 DCs were reacted for at least 20 min at 4° C. in 100 μl of PBS/5% FCS/0.1% sodium azide (staining buffer) with fluorescein isothiocyanate (FITC)-conjugated IgG mAb specific for CD86, CD40 and MHC-II (eBioscience). Cells were then washed 4 times with staining buffer, fixed in 10% formaldehyde in PBS (pH 7.2-7.4) and examined by flow cytometry using a FACScan (BD). In all experiments, isotype controls were included using FITC-conjugated irrelevant mAb of the same Ig class.

allogeneic T cells = test: Mixed leukocyte reaction, stimulated murine BM-DCs with allogeneic T cells; assay type: cell-based, mouse; conditions: BM-DCs from C57/BL6 mice; HMGB1-Bx 50 μg/ml, peptides 200 μg/ml, 48 h; 5-day co-culture
Description: T cells were isolated by negative selection using the mouse SpinSep antibody cocktail from StemCell Technologies (Vancouver, Calif.) according to the manufacturer's instructions. The cell purity of the isolated T cells was routinely ˜99% pure.
To assess levels of T cell activation and proliferation, cells were plated at 10^5 cells per well in a round-bottomed 96-well tray at DC:T cell ratios of 1:120 for 5 days in medium described above. The microcultures were pulsed with (^3H)-thymidine (1 μCi/well) for the final 8 h of culture. Cell cultures were harvested onto glass fiber filters with an automated multiple sample harvester and the amount of isotope incorporation was determined by liquid scintillation β-emission. Responses are reported as mean cpm of thymidine incorporation by triplicate cultures (+/−SEM).

immature DCs = test: Phenotypic maturation of human DCs (surface markers, FACS); assay type: cell-based; conditions: 48 h, rHMGB1 0.1-10.0 μg/ml
Description: as §1, §2
1×10^4 DCs were reacted for at least 20 min at 4° C. in 100 μl of PBS/5% FCS/0.1% sodium azide (staining buffer) with phycoerythrin (PE)-conjugated IgG specific for CD206, CD54, HLA-DR (all from Beckton Dickinson Immunostaining Systems; San Jose. Calif.) and CD83 (Immunotech-Beckman-Coulter; Marseille, France) or fluorescein isothiocyanate (FITC)-conjugated IgG mAb specific for CD80, CD40 and CD58 (all from Beckton Dickinson Immunostaining Systems; San Jose. Calif.). Cells were then washed 4 times with staining buffer, fixed in 10% formaldehyde in PBS (pH 7.2-7.4) and examined by flow cytometry using a FACScan (BD). In all experiments, isotype controls were included using an appropriate PE- or FITC-conjugated irrelevant mAb of the same Ig class.

[4] = peptides 200 μg/ml, HMGB1-Bx 50 μg/ml, polymyxin B, 48 h
[5] = peptides 200 μg/ml, polymyxin B, 48 h

Row | Substance | secretion of IL-6 [1] | secretion of IL-12 (p70) (murine BM-DCs [2]; [4]) | secretion of IL-8 [1] | secretion of IL-12 (p70) [1] | secretion of IL-18 [1] | secretion of TNF-α [1] | IL-6 [1] | IL-8 [1] | IL-10 [1] | IL-12 [1] | IL-18 [1] | TNFα [1] | IL-1β (murine BM-DCs [2]) | IL-2 (murine BM-DCs [2]) | IL-5 (murine BM-DCs [2]) | IL-6 (murine BM-DCs [2]) | IL-10 (murine BM-DCs [2]) | IL-12 (murine BM-DCs [2]) | activation of murine BM-DCs (murine BM-DCs [2]; peptides 200 μg/ml, 48 h) | secretion of IL-2 (murine BM-DCs [2]; [4]) | also measured
1 | CSEYRPKIKGEHPGLSIG [Hp-106 non-bio] | no activity | did not enhance IL-12 secretion |  |  |  |  |  |  |  |  |  |  |  |  |  |  |  |  |  |  | 
2 | CSEYRPKIKGEHPGLSIG [Hp-106] (Biotin-CSEYRPKIKGEHPGLSIG; listed as Homo sapiens) | induced secretion of IL-6 | enhanced secretion | not | increased secretion | increased secretion | increased secretion | + | − | − | + | + | + | + | + | + | − | − | + | activated | enhanced secretion | IL-6 release ([1]; Example 1, synthetic B box peptides at 200 μg/ml, FIGS. 3D, E): specifically stimulated IL-6 release; IL-8 (murine BM-DCs [2]): +; IL-18 (murine BM-DCs [2]): +; TNFα (murine BM-DCs [2]): +; secretion of IL-5 (murine BM-DCs [2]; [4]): enhanced secretion; secretion of IL-8 (murine BM-DCs [2]; [4]): enhanced secretion; secretion of IL-18 (murine BM-DCs [2]; [4]): enhanced secretion; secretion of TNF-α (murine BM-DCs [2]; [4]): enhanced secretion; secretion of IL-10 (murine BM-DCs [2]; [5]): enhanced secretion; surface expression of maturation markers (murine BM-DCs [3]): did not significantly enhance; T cell stimulatory activity of exposed BM-DCs in mixed lymphocyte reaction (allogeneic T cells): activated resting allogeneic T cells
3 | DPNAPKRPPSAFFLFCSE (Biotin-DPNAPKRPPSAFFLFCSE; listed as Homo sapiens) [Hp-91] | enhanced the IL-6 secretion; also recorded: induced IL-6 secretion |  | not | increased secretion | increased secretion | increased secretion | + | − | − | + | + | + | + | + | + | − | − | + | activated | increased production | IL-8 (murine BM-DCs [2]): −; IL-18 (murine BM-DCs [2]): −; TNFα (murine BM-DCs [2]): −; secretion of IL-1β (murine BM-DCs [2]; [4]): increased production; secretion of IL-5 (murine BM-DCs [2]; [4]): increased production; secretion of IL-8 (murine BM-DCs [2]; [4]): not; secretion of TNF-α (murine BM-DCs [2]; [4]): not
4 | HPDASVNFSEFSKKCSER (Biotin-HPDASVNFSEFSKKCSER; listed as Homo sapiens) [Hp-31] | induced secretion of IL-6 | enhanced the production | not | increased secretion | increased secretion | increased secretion | + | − | − | + | + | + | + | + | + | − | − | + | activated | enhanced the production | secretion of IL-1β (murine BM-DCs [2]; [4]): enhanced the production; secretion of IL-5 (murine BM-DCs [2]; [4]): enhanced the production; secretion of IL-10 (murine BM-DCs [2]; [5]): not
5 | SERWKTMSAKEKGKFEDM (Biotin-SERWKTMSAKEKGKFEDM; listed as Homo sapiens) [Hp-46] |  |  |  |  |  |  |  |  |  |  |  |  |  |  |  |  |  |  |  |  | T cell stimulatory activity of exposed BM-DCs in mixed lymphocyte reaction (allogeneic T cells): did not show enhanced T cell stimulatory activity
6 | SIGDVAKKLGEMWNNTAA (Biotin-SIGDVAKKLGEMWNNTAA; listed as Homo sapiens) [Hp-121, control peptide] |  |  |  |  |  |  |  |  |  |  |  |  |  |  |  |  |  |  |  |  | CD40 expression (murine BM-DCs [3]; HMGB1-Bx 50 μg/ml): No altered expression; CD86 expression (murine BM-DCs [3]; HMGB1-Bx 50 μg/ml): No altered expression; MHC-II expression (murine BM-DCs [3]; HMGB1-Bx 50 μg/ml): No altered expression; T cell stimulatory activity of exposed BM-DCs in mixed lymphocyte reaction (allogeneic T cells): did not show enhanced T cell stimulatory activity
7 | recombinant HMGB1: Human recombinant HMGB1 expressed in Escherichia coli; full-length sequence SEQ ID NO:1 |  |  |  |  |  |  |  |  |  |  |  |  |  |  |  |  |  |  |  |  | CD86 expression (immature DCs): increases; CD40 expression (immature DCs; rB box 100 μg/ml): increases; CD54 expression (immature DCs; rB box 100 μg/ml): increases; CD83 expression (immature DCs; rB box 100 μg/ml): increases; CD206 (macrophage mannose receptor) expression (immature DCs; rB box 100 μg/ml): decrease; MHCII expression (immature DCs; rB box 100 μg/ml): increases

— patent US20110236406A1, “IMMUNOGENIC COMPOSITIONS COMPRISING HMGB1 POLYPEPTIDES” (MedImmune, LLC, priority 2004, published 2011)
